Counter-ions that a name gives are not always drawn.

The experiment addresses T1, AT1 receptor (Rattus norvegicus, UniProt P25095).
T1 construct: rat liver membranes; from tissue; host or cells: rat liver membranes
T1 sequence (P25095 1-359): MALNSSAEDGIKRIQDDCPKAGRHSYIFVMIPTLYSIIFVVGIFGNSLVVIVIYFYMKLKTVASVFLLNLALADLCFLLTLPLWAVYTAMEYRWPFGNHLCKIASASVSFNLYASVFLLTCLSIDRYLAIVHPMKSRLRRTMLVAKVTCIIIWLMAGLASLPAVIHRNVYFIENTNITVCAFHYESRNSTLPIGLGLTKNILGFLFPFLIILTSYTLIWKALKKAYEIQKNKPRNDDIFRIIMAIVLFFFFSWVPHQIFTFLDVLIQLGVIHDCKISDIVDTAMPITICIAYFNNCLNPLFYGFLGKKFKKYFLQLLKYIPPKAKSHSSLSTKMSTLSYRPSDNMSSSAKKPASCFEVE
As to the kind of experiment: [^3 H]angiotensin II binding to rat liver membranes (AT1 test). Particulars: inhibition of [^3 H]angiotensin II binding. The procedure:
The compounds of Formula I or Ia are antagonists of angiotensin II. Dudley, D. T., et al, Molecular Pharmacology 1990;38:370-377 reported the existence of 2 subclasses of angiotensin II binding sites in rabbit adrenal gland and uterus and in the rat liver which differ in their tissue distribution and affinity for various peptide and nonpeptide ligands. Thus, the compounds of Formula I or Ia were tested for their ability to inhibit [^3 H]angiotensin II binding to rat liver membranes (AT1 test) according to the methods described by Dudley, D. T., et al, Molecular Pharmacology 1990;38:370-7. […] It is well established that compounds which antagonize the effect of angiotensin II at the AT1 receptor have value for treatment of hypertension and heart failure.
What is called IC50 is the concentration at which inhibition is half-maximal. A higher IC50 goes with weaker potency. Compound `CCCCc1ncc(/C=C2/C(=O)N(CCCC)C(=O)N2CCc2ccccc2)n1Cc1ccc(C(=O)OC)cc1` [Example 41, Methyl Z-4-[[2-butyl-5-[[1-butyl-2,5-dioxo-3-(2-phenylethyl)-4-imidazolidinylidene]methyl]-1H-imidazol-1-yl]methyl]benzoate mono hydrochloride] showed an IC50 of 30.9 nM.
The same measure for `CCCCc1ncc(/C=C2/C(=O)N(CCCC)C(=O)N2C(c2ccccc2)c2ccccc2)n1Cc1ccc(C(=O)OC)cc1` [Example 42, Methyl Z-4-[[2-butyl-5-[[1-butyl-2,5-dioxo-3-(diphenylmethyl)-4-imidazolidinylidene]methyl]-1H-imidazol-1-yl]methyl]benzoate mono hydrochloride]: 884 nM; for `CCCCc1ncc(/C=C2/C(=O)N(CCCC)C(=O)N2CC2CCCCC2)n1Cc1ccc(C(=O)OC)cc1` [Example 43, Methyl Z-4-[[2-butyl-5-[[1-butyl-3-(cyclohexylmethyl)-2,5-dioxo-4-imidazolidinylidene]methyl]-1H-imidazol-1-yl]methyl]benzoate mono hydrochloride]: 3.33 nM.
Compound `CCCCc1ncc(/C=C2/C(=O)N(CCCC)C(=O)N2Cc2nn[nH]n2)n1Cc1ccc(C(=O)OC)cc1` [Example 44, Methyl Z-4-[[2-butyl-5-[[1-butyl-2,5-dioxo-3-(1H-tetrazol-5-ylmethyl)-4-imidazolidinylidene]methyl]-1H-imidazol-1-yl]methyl]benzoate monohydrochloride] had an IC50 of 41.7 nM.
With `CCCCCCN1C(=O)N/C(=C\c2cnc(CCCC)n2Cc2ccc(C(=O)OC)cc2)C1=O` [Example 47, Methyl ZX-4-[[2-butyl-5-[(1-hexyl-2,5-dioxo-4-imidazolidinylidene)methyl]-1H-imidazol-1-yl]m,ethyl]benzoate], the half-maximal inhibitory concentration (IC50) was above 1000 nM.
The same measure for `CCCCCCN1C(=O)/C(=C/c2cnc(CCCC)n2Cc2ccc(C(=O)OC)cc2)N(CCCC)C1=O` [Example 48, Methyl Z-4-[[2-butyl-5-[(3-butyl-1-hexyl-2,5-dioxo-4-imidazolidinylidene)methyl]-1H-imidazol-1-yl]methyl]benzoate monohydrochloride]: 14.6 nM; for `CCCCCCN1C(=O)/C(=C/c2cnc(CCCC)n2Cc2ccc(C(=O)OC)cc2)N(Cc2ccsc2)C1=O` [Example 49, Methyl Z-4-[[2-butyl-5-[[1-hexyl-2,5-dioxo-3-(3-thienylmethyl)-4-imidazolidinylidene]methyl]-1H-imidazol-1-yl]methyl]benzoate monohydrochloride]: 9.48 nM.
The figure for `CCCCCCN1C(=O)/C(=C/c2cnc(CCCC)n2Cc2ccc(C(=O)OC)cc2)N(Cc2ccccc2)C1=O` [Example 50, Methyl Z-4-[[2-butyl-5-[[1-hexyl-2,5-dioxo-3-(phenylmethyl)-4-imidazolidinylidene]methyl]-1H-imidazol-1-yl]methyl]benzoate monohydrochloride] is 26.6 nM; for `CCCCCCN1C(=O)/C(=C/c2cnc(CCCC)n2Cc2ccc(C(=O)OC)cc2)N(Cc2csc(C)n2)C1=O` [Example 51, Methyl Z-4-[[2-butyl-5-[1-hexyl-3-[(2-methyl-4-thiazolyl)methyl-2,5-dioxo-4-imidazolidinylidene]methyl]-1H-imidazol-1-yl]methyl]benzoate dihydrochloride] it is 5.33 nM; for `CCCCc1ncc(/C=C2\NC(=O)N(COC)C2=O)n1Cc1ccc(C(=O)OC)cc1` [Example 53] it is above 1000 nM.
The figure for `CCCCc1ncc(/C=C2/C(=O)N(COC)C(=O)N2CCCC)n1Cc1ccc(C(=O)OC)cc1` [Example 54, Methyl Z-4-[[2-butyl-5-[[3-butyl-1-(methoxymethyl)-2,5-dioxo-4-imidazolidinylidene]methyl]-1H-imidazol-1-yl]methyl]benzoate monohydrochloride] is 29.5 nM; for `CCCCc1ncc(/C=C2/C(=O)N(COC)C(=O)N2Cc2ccccc2)n1Cc1ccc(C(=O)OC)cc1` [Example 55, Methyl Z-4-[[2-butyl-5-[[1-(methoxymethyl)-2,5-dioxo-3-(phenylmethyl)-4-imidazolidinylidene]methyl]-1H-imidazol-1-yl]methyl]benzoate monohydrochloride] it is 12.8 nM.
With `CCCCc1ncc(/C=C2/C(=O)N(COC)C(=O)N2Cc2csc(C)n2)n1Cc1ccc(C(=O)OC)cc1` [Example 56, Methyl Z-4-[[2-butyl-5-[[1-(methoxymethyl)-3-[(2-methyl-4-thiazolyl)methyl]-2,5-dioxo-4-imidazolidinylidene]methyl]-1H-imidazol-1-yl]methyl]benzoate dihydrochloride], the IC50 was 47.8 nM.
`CCCCc1ncc(/C=C2/C(=O)N(CCCC)C(=O)N2Cc2cccc[n+]2[O-])n1Cc1ccc(C(=O)OC)cc1` [Example 57, Methyl Z-4-[[2-butyl-5-[[1-butyl-2,5-dioxo-3-[(2-pyridinyl-N-oxide)-methyl]-4-imidazolidinylidene]methyl]-1H-imidazol-1-yl]methyl]benzoate]: the IC50 amounted to 260 nM.
The figure for `CCCCc1ncc(/C=C2/C(=O)N(CCCC)C(=O)N2Cc2ccccn2)n1Cc1ccc(C(=O)OC)cc1` [Example 58, Methyl Z-4-[[2-butyl-5-[[1-butyl-2,5-dioxo-3-(2-pyridinylmethyl)-4-imidazolidinylidene]methyl]-1H-imidazol-1-yl]methyl]benzoate dihydrochloride] is 5.81 nM.
The same measure for `CCCCc1ncc(/C=C2/C(=O)N(CCCC)C(=O)N2Cc2csc(C)n2)n1Cc1ccc(C(=O)O)cc1` [Example 59, Z-4-[[2-butyl-5-[[1-butyl-3-[(2-methyl-4thiazolyl)methyl]-2,5-dioxo-4-imidazolidinylidene]methyl]-1H-imidazol-1-yl]methyl]benzoic acid]: 1.21 nM; for `CCCCc1ncc(/C=C2\C(=O)N(CCCC)C(=O)N2Cc2csc(C)n2)n1Cc1ccc(C(=O)O)cc1` [Example 60, E-4-[[2-butyl-5-[[1-butyl-3-[(2-methyl-4-thiazolyl)methyl]-2,5-dioxo-4-imidazolidinylidene]methyl]-1H-imidazol-1-yl]methyl]benzoic acid]: 2.63 nM; for `CCCCc1ncc(/C=C2/C(=O)N(CCCC)C(=O)N2Cc2ccccc2Cl)n1Cc1ccc(C(=O)OC)cc1` [Example 61, Methyl Z-4-[[2-butyl-5-[[1-butyl-3-[(2-chlorophenyl)methyl]-2,5-dioxo-4-imidazolidinylidene]methyl]-1H-imidazol-1-yl-]methyl]benzoate monohydrochloride]: 59.8 nM.
Compound `CCCCc1ncc(/C=C2/C(=O)N(CCCC)C(=O)N2Cc2csc(N)n2)n1Cc1ccc(C(=O)OC)cc1` [Example 62, Methyl Z-4-[[2-butyl-5-[[1-butyl-3-[(2-amino-4-thiazolyl)methyl]-2,5-dioxo-4-imidazolidinylidene]methyl]-1H-imidazol-1-yl]methyl]benzoate dihydrochloride] came in with an IC50 of 1.21 nM.
The compound `CCCCc1ncc(/C=C2/C(=O)NC(=O)N2Cc2cccs2)n1Cc1ccc(C(=O)OC)cc1` [Example 63] had a half-inhibitory concentration (IC50) of 5.08 nM. This IC50 is about 4.2-fold higher than that of the compound before.
Regarding `CCCCc1ncc(/C=C2/C(=O)NC(=O)N2Cc2ccc(Cl)cc2)n1Cc1ccc(C(=O)OC)cc1` [Example 64, Methyl Z-4-[[2-butyl-5-[[3-[(4-chlorophenyl)methyl]-2,5-dioxo-4-imidazolidinylidene]methyl]-1H-imidazol-1-yl]methyl]benzoate monohydrochloride], the IC50 was 4.3 nM. The IC50 values of the last two compounds are within 1.5-fold of each other.
The same measure for `CCCCc1ncc(CC2C(=O)NC(=O)N2CCCC)n1Cc1ccc(C(=O)O)cc1` (centres unmarked) [Example 65, 4-[[2-Butyl-5-[(3-butyl-2,5-dioxo-4-imidazolidinyl)methyl]-1H-imidazol-1-yl]methyl]benzoic acid]: 200 nM; for `CCCCc1ncc(/C=C2/C(=O)N(CCCC)C(=O)N2Cc2csc(C)n2)n1Cc1ccc(C(=O)OC)cc1` [Example 68, Methyl Z-4-[[2-butyl-5-[[1-butyl-3-[(2-methyl-4-thiazolyl)methyl]-2,5-dioxo-4-imidazolidinylidene]methyl]-1H-imidazol-1-yl]methyl]benzoate dihydrochloride]: 4.2 nM; for `CCCCc1ncc(/C=C2/C(=O)N(CCCC)C(=O)N2Cc2c(C)noc2C)n1Cc1ccc(C(=O)OC)cc1` [Example 69, Methyl Z-4-[[2-butyl-5-[[1-butyl-3-[(3,5-dimethyl-4-isoxazolyl)methyl]-2,5-dioxo-4-imidazolidinylidene]methyl]-1H-imidazol-1-yl]methyl]benzoate monohydrochloride]: 198 nM.
Regarding `CCCCc1ncc(/C=C2/C(=O)NC(=O)N2CCCC)n1Cc1ccc(NS(=O)(=O)C(F)(F)F)cc1` [Example 71a, Z-N-[4-[[2-butyl-5-[(3-butyl-2,5-dioxo-4-imidazolidinylidene)methyl]-1H-imidazol-1-1yl]methyl]phenyl]-1,1,1,-trifluoromethanesulfonamide], the IC50 was determined as 3.21 nM.
For `CCCCc1ncc(/C=C2\C(=O)NC(=O)N2CCCC)n1Cc1ccc(NS(=O)(=O)C(F)(F)F)cc1` [Example 71b, E-N-[4-[[2-butyl-5-[(3-butyl-2,5-dioxo-4-imidazolidinylidene)methyl]-1H-imidazol-1-yl]methyl]phenyl]-1,1,1-trifluoromethanesulfonamide], the IC50 came to 4.18 nM.
